Reference: patent US20040037843A1, “Inducing cellular immune responses to prostate cancer antigens using peptide and nucleic acid compositions” (priority 2003, published 2004)

Assays:
Test in all cases: HLA class I binding assay, purified HLA, inhibition of 125I-labelled probe peptide
HLA-A*0201 = HLA-A*0201 (Homo sapiens, UniProt P04439, D140Y/D185E/D98H/E176V/E277Q/G131W/G231S/I119V/I121R/I166T/I218V/L300P/L318F/N151K/N90K/P208A/P217A/Q86G/Q94H/R138H/R169H/T345S); details: A*[…], A2 supermotif cross-reactive binding data
HLA-A*0202 = HLA-A*0202 (Homo sapiens, UniProt P04439, D140Y/D185E/D98H/E176V/E277Q/G131W/G231S/I119L/I121R/I166T/I218V/L180W/L300P/L318F/N151K/N90K/P208A/P217A/Q67R/Q86G/Q94H/R138H/R169H/T345S); details: A2 supermotif cross-reactive binding data
HLA-A*6802 = HLA-A*6802 (Homo sapiens, UniProt P04439, A269V/D140Y/D185E/E176V/E277Q/E87N/F33Y/G231S/I121R/I166T/I218V/L180W/L300P/L318F/N151K/P208A/P217A/Q86R/R138H/R169H/S129P/T345S/V36M); details: A2 supermotif cross-reactive binding data; read-out: A*6802 nM
HLA-A*0206 = HLA-A*0206 (Homo sapiens, UniProt P04439, D140Y/D185E/D98H/E176V/E277Q/F33Y/G131W/G231S/I119V/I121R/I166T/I218V/L300P/L318F/N151K/N90K/P208A/P217A/Q86G/Q94H/R138H/R169H/T345S); details: A*[…], A2 supermotif cross-reactive binding data
HLA-A*0203 = HLA-A*0203 (Homo sapiens, UniProt P04439, A173T/D140Y/D185E/D98H/E277Q/G131W/G231S/I119V/I121R/I166T/I218V/L180W/L300P/L318F/N151K/N90K/P208A/P217A/Q86G/Q94H/R138H/R169H/T345S); details: A*[…], A2 supermotif cross-reactive binding data

IC50 (HLA-A*0201)	IC50 (HLA-A*0202)	IC50 (HLA-A*6802)	IC50 (HLA-A*0206)	IC50 (HLA-A*0203)	Structure (SMILES)
238 nM	27 nM	258 nM	82 nM	44 nM	CC[C@H](C)[C@H](NC(=O)[C@H](CC(=O)O)NC(=O)[C@H](Cc1ccccc1)NC(=O)[C@@H](NC(=O)[C@H](C)N)[C@@H](C)O)C(=O)N[C@@H](CCC(=O)O)C(=O)N[C@@H](CO)C(=O)N[C@@H](CCCCN)C(=O)N[C@H](C(=O)O)C(C)C [Peptide 1418.30]
69 nM	518 nM	> 10000 nM	128 nM	53 nM	CSCC[C@H](NC(=O)[C@H](Cc1ccccc1)NC(=O)[C@H](CCCCN)NC(=O)[C@@H](NC(=O)[C@@H](NC(=O)[C@@H](N)CCCCN)C(C)C)[C@@H](C)O)C(=O)N[C@@H](CC(C)C)C(=O)N[C@@H](CS)C(=O)N[C@H](C(=O)O)C(C)C [Peptide 60.0220]
263 nM	4.9 nM	5000 nM	446 nM	71 nM	CC(C)C[C@H](NC(=O)[C@H](CC(C)C)NC(=O)[C@H](Cc1c[nH]cn1)NC(=O)[C@H](CC(C)C)NC(=O)[C@H](CO)NC(=O)[C@@H](NC(=O)[C@H](CS)NC(=O)[C@H](CCC(N)=O)NC(=O)[C@H](CC(C)C)NC(=O)[C@@H](N)CO)C(C)C)C(=O)O [Peptide 1419.66]
